Test results: patent US20220289727A1, “ENZYME INHIBITORS” (KALVISTA PHARMACEUTICALS LIMITED, priority 2019, published 2022)
pIC50: −log10 of the molar value.

Target: T1, Human Factor XIIa (Homo sapiens, UniProt P00748)
T1 construct: Human Factor XIIa (Enzyme Research Laboratories) was incubated; purchased Enzyme Research Laboratories
T1 sequence (P00748 373-615 limits assumed): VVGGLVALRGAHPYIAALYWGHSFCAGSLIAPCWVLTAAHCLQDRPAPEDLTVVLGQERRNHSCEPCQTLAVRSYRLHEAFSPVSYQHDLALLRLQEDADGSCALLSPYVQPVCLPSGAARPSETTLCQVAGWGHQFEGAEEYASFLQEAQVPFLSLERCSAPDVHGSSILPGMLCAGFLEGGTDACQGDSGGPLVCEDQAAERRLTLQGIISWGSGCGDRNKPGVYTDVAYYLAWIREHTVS
T1 sequence (P00748 20-372 partner limits assumed): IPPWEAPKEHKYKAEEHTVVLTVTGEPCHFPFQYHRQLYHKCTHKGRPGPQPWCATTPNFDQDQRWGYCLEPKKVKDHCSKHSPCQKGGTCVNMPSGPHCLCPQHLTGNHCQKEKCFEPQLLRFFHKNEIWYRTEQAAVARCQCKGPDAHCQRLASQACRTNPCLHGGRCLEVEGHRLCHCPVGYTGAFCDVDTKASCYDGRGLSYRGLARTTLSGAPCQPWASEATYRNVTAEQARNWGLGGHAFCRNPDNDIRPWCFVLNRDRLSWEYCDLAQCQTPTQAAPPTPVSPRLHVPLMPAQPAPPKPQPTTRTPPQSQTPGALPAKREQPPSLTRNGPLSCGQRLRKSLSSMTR
Assay: Determination of FXIIa inhibitory activity in vitro (fluorogenic substrate H-DPro-Phe-Arg-AFC)
Assay type: biochemical
Settings: 25° C., residual enzyme activity (initial rate)

Row | Structure (SMILES) | pIC50
1 | Nc1nccc2cc(CNC(=O)c3cc(Cl)c(COc4ccc(N5CCNCC5)cc4)s3)ccc12 [Example 7.03, N-((1-Aminoisoquinolin-6-yl)methyl)-4-chloro-5-((4-(piperazin-1-yl)phenoxy)methyl)thiophene-2-carboxamide] | 5.52 to 6.00
2 | CC(C)NC(=O)N(C)c1ccc(OCc2sc(C(=O)NCc3ccc4c(N)nccc4c3)cc2Cl)cc1 [Example 7.04] | 4.40 to 5.00
3 | Nc1nccc2cc(CNC(=O)c3cc(Cl)c(COc4cccc(N5CCNCC5)c4)s3)ccc12 [Example 7.05] | 5.52 to 6.00
4 | Nc1nccc2cc(CNC(=O)c3cc(Cl)c(COCCN4CCOCC4)s3)ccc12 [Example 7.06] | 5.00 to 5.52
5 | Nc1nccc2cc(CNC(=O)c3cc(Cl)c(COCCN4CCCCC4)s3)ccc12 [Example 7.07] | 5.00 to 5.52
6 | CN1CCC(COCc2sc(C(=O)NCc3ccc4c(N)nccc4c3)cc2Cl)CC1 [Example 7.08] | 5.52 to 6.00
7 | Nc1nccc2cc(CNC(=O)c3cc(Cl)c(COCCN4CCS(=O)(=O)CC4)s3)ccc12 [Example 7.09] | 5.00 to 5.52
8 | Nc1nccc2cc(CNC(=O)c3cc(Cl)c(COCc4ccccn4)s3)ccc12 [Example 7.10] | 4.40 to 5.00
9 | CS(=O)(=O)c1cccc(COCc2sc(C(=O)NCc3ccc4c(N)nccc4c3)cc2Cl)c1 [Example 7.11] | 4.40 to 5.00
10 | Nc1nccc2cc(CNC(=O)c3cc(Cl)c(COCCC4CCOCC4)s3)ccc12 [Example 7.12] | 4.40 to 5.00
11 | Nc1nccc2cc(CNC(=O)c3cc(Cl)c(COCC4CCOCC4)s3)ccc12 [Example 7.13] | 5.00 to 5.52
12 | Nc1nccc2cc(CNC(=O)c3cc(Cl)c(COCCN4CCCC4)s3)ccc12 [Example 7.14] | 5.00 to 5.52
13 | CN(C)CCOCc1sc(C(=O)NCc2ccc3c(N)nccc3c2)cc1Cl [Example 7.15] | 5.00 to 5.52
14 | Nc1nccc2cc(CNC(=O)c3cc(Cl)c(COCCn4ccnc4)s3)ccc12 [Example 7.16] | 5.00 to 5.52
15 | CN(CCOCc1sc(C(=O)NCc2ccc3c(N)nccc3c2)cc1Cl)Cc1ccccc1 [Example 7.17] | 4.40 to 5.00
16 | Nc1nccc2cc(CNC(=O)c3cc(Cl)c(COCC4CCN(Cc5ccccc5)CC4)s3)ccc12 [Example 7.18] | 4.40 to 5.00
17 | Nc1nccc2cc(CNC(=O)c3cc(Cl)c(COCc4cccnc4)s3)ccc12 [Example 7.19] | 5.00 to 5.52
18 | Nc1nccc2cc(CNC(=O)c3cc(Cl)c(COCc4ccncc4)s3)ccc12 [Example 7.20] | 5.00 to 5.52
19 | Nc1nccc2cc(CNC(=O)c3cc(Cl)c(COCc4cncnc4)s3)ccc12 [Example 7.21] | 5.00 to 5.52
20 | CCN(CC)CCCOCc1sc(C(=O)NCc2ccc3c(N)nccc3c2)cc1Cl [Example 7.22] | 5.52 to 6.00
21 | Nc1nccc2cc(CNC(=O)c3cc(Cl)c(COCCCN4CCCCC4)s3)ccc12 [Example 7.23] | 5.52 to 6.00
22 | Nc1nccc2cc(CNC(=O)c3cc(Cl)c(COCCCc4ccncc4)s3)ccc12 [Example 7.24] | 4.40 to 5.00

Row | Structure (SMILES) | pIC50
23 | Nc1nccc2cc(CNC(=O)c3cc(Cl)c(COCCCN4CCOCC4)s3)ccc12 [Example 7.25] | 5.00 to 5.52
24 | CN(C)CCCCOCc1sc(C(=O)NCc2ccc3c(N)nccc3c2)cc1Cl [Example 7.26, N-((1-Aminoisoquinolin-6-yl)methyl)-4-chloro-5-((4-(dimethylamino)butoxy)methyl)thiophene-2-carboxamide] | 5.52 to 6.00
25 | Cn1cc(CCCOCc2sc(C(=O)NCc3ccc4c(N)nccc4c3)cc2Cl)cn1 [Example 7.27] | 5.00 to 5.52
26 | Nc1nccc2cc(CNC(=O)c3cc(Cl)c(COCCCn4cccn4)s3)ccc12 [Example 7.28] | 4.40 to 5.00
27 | Nc1nccc2cc(CNC(=O)c3cc(Cl)c(COCCCc4ccccn4)s3)ccc12 [Example 7.29] | 4.40 to 5.00
28 | CN(C)c1ccc(COCc2sc(C(=O)NCc3ccc4c(N)nccc4c3)cc2Cl)cc1 [Example 7.30] | 4.40 to 5.00
29 | CN(C)CCCOCc1sc(C(=O)NCc2ccc3c(N)nccc3c2)cc1Cl [Example 7.31] | 5.52 to 6.00
30 | Nc1nccc2cc(CNC(=O)c3cc(Cl)cs3)ccc12 [Example 25.01] | 4.40 to 5.00
31 | Cc1sc(C(=O)NCc2ccc3c(N)nccc3c2)cc1Br [Example 25.02] | 5.00 to 5.52
32 | Nc1nccc2cc(CNC(=O)c3ccc(Cl)s3)ccc12 [Example 25.03] | 4.40 to 5.00
33 | Cc1sc(C(=O)NCc2ccc3c(N)nccc3c2)cc1Cl [Example 25.04] | 5.00 to 5.52
34 | Nc1nccc2cc(CNC(=O)c3cc(Cl)c(Cc4ccccc4O)s3)ccc12 [Example 25.05] | 4.40 to 5.00
35 | COc1ccc(O)c(Cc2sc(C(=O)NCc3ccc4c(N)nccc4c3)cc2Cl)c1 [Example 25.06] | 4.40 to 5.00
36 | CN1CCC(CCc2sc(C(=O)NCc3ccc4c(N)nccc4c3)cc2Cl)CC1 [Example 25.11] | 5.52 to 6.00
37 | CN1CCC(CCc2csc(C(=O)NCc3ccc4c(N)nccc4c3)c2)CC1 [Example 25.12] | 5.00 to 5.52
38 | Nc1nccc2cc(CNC(=O)c3cc(Br)cs3)ccc12 [Example 25.13] | 5.00 to 5.52
39 | Nc1nccc2cc(CNC(=O)c3nc(CCC4CCNCC4)cs3)ccc12 [Example 25.14] | 5.52 to 6.00
40 | CN1CCC(CCc2csc(C(=O)NCc3ccc4c(N)nccc4c3)n2)CC1 [Example 25.15, N-((1-Aminoisoquinolin-6-yl)methyl)-4-(2-(1-methylpiperidin-4-yl)ethyl)thiazole-2-carboxamide] | > 6.00
41 | CN1CCC(Nc2csc(C(=O)NCc3ccc4c(N)nccc4c3)c2)CC1 [Example 25.16] | 4.40 to 5.00
42 | CN1CCC(CNc2csc(C(=O)NCc3ccc4c(N)nccc4c3)c2)CC1 [Example 25.17] | 4.40 to 5.00
43 | Cc1nc2[nH]ccc2c(C)c1CNC(=O)c1cc(Cl)c(C)s1 [Example 25.101, 4-Chloro-N-((4,6-dimethyl-1H-pyrrolo[2,3-b]pyridin-5-yl)methyl)-5-methylthiophene-2-carboxamide] | 4.40 to 5.00
44 | Cc1sc(C(=O)NCc2cc3c(N)nccc3s2)cc1Cl [Example 25.103, N-((4-aminothieno[3,2-c]pyridin-2-yl)methyl)-4-chloro-5-methylthiophene-2-carboxamide] | 4.40 to 5.00

Row | Structure (SMILES) | pIC50
45 | Cc1sc(C(=O)NCc2ccc3c(N)nccc3c2F)cc1Cl [Example 25.104, N-((1-Amino-5-fluoroisoquinolin-6-yl)methyl)-4-chloro-5-methylthiophene-2-carboxamide] | 4.40 to 5.00
46 | Cc1cc(N)nc(C)c1CNC(=O)c1cc(Cl)c(C)s1 [Example 25.105, N-[(6-Amino-2,4-dimethylpyridin-3-yl)methyl]-4-chloro-5-methylthiophene-2-carboxamide] | 4.15 to 4.40
47 | Nc1nccc2cc(CNC(=O)c3cc4cccc(Cl)c4s3)ccc12 [Example 25.204] | 4.40 to 5.00
48 | Nc1nccc2cc(CNC(=O)c3cc4cc(F)ccc4s3)ccc12 [Example 25.205] | 5.00 to 5.52
49 | Nc1nccc2cc(CNC(=O)c3cc4c(F)cccc4s3)ccc12 [Example 25.206] | 4.40 to 5.00
50 | CN1CCC(Nc2cccc3sc(C(=O)NCc4ccc5c(N)nccc5c4)cc23)CC1 [Example 25.208] | 5.00 to 5.52
51 | CN1CCC(CNc2cccc3sc(C(=O)NCc4ccc5c(N)nccc5c4)cc23)CC1 [Example 25.209] | 5.00 to 5.52
52 | Cc1sc(C(=O)NCc2ccc3c(N)nccc3c2)c(NCC2CCN(C)CC2)c1C [Example 26.11] | 5.00 to 5.52
53 | Cc1cc(CCC2CCN(C)CC2)c(C(=O)NCc2ccc3c(N)nccc3c2)s1 [Example 26.12] | 5.00 to 5.52
54 | CN1CCC(CNc2ccsc2C(=O)NCc2ccc3c(N)nccc3c2)CC1 [Example 26.13] | 5.00 to 5.52
55 | Cc1nsc(C(=O)NCc2ccc3c(N)nccc3c2)c1NCC1CCNCC1 [Example 26.14] | 4.40 to 5.00
56 | Cc1nsc(C(=O)NCc2ccc3c(N)nccc3c2)c1NCC1CCN(C)CC1 [Example 26.15] | 5.00 to 5.52
57 | CN1CCC(CNc2ncsc2C(=O)NCc2ccc3c(N)nccc3c2)CC1 [Example 26.16, N-((1-Aminoisoquinolin-6-yl)methyl)-4-(((1-methylpiperidin-4-yl)methyl)amino)thiazole-5-carboxamide] | 5.52 to 6.00
58 | CN1CCC(CCCn2nccc2C(=O)NCc2ccc3c(N)nccc3c2)CC1 [Example 35.08] | 5.52 to 6.00
59 | CCOc1ccc(Cn2nccc2C(=O)NCc2ccc3c(N)nccc3c2)cc1 [Example 35.09] | 4.40 to 5.00
60 | CN1CCC(CCn2nccc2C(=O)NCc2cc3c(N)nccc3s2)CC1 [Example 46.01, N-((4-aminothieno[3,2-c]pyridin-2-yl)methyl)-1-(2-(1-methylpiperidin-4-yl)ethyl)-1H-pyrazole-5-carboxamide] | 4.40 to 5.00
61 | Cc1c(C(=O)NCc2ccc3c(N)nccc3c2)cc(-c2ccccc2)n1CCCN1CCOCC1 [Example 51.01] | 4.40 to 5.00
62 | CN1CCC(CCn2ccc(C(=O)NCc3ccc4c(N)nccc4c3)n2)CC1 [Example 51.06] | 5.52 to 6.00
63 | CN1CCC(CCCn2ccc(C(=O)NCc3ccc4c(N)nccc4c3)n2)CC1 [Example 51.07] | 5.52 to 6.00
64 | CC(=O)N1CCC(CCn2ccc(C(=O)NCc3ccc4c(N)nccc4c3)n2)CC1 [Example 51.08] | 4.40 to 5.00
